From patent US8415384B2, “Reducing myocardial reperfusion injury by the combination therapy of protein kinase A activation and B1-adrenergic receptor blockade” (The Board of Regents of the University of Texas System, priority 2008, dated 2013)
Read-outs that look alike come from different tables or passages of the source. Where no end group is shown, it is not given here.

Assays:
[1] = tested on: rat myocardial ischemia-reperfusion model; test: rat myocardial ischemia-reperfusion model (30-min coronary occlusion, 4-hr reperfusion), infarct size; assay type: in vivo; conditions: for increase of infarct size (IS): pre-ischemic infusion (10-min), ICI-118551 100 μg/kg/min, CGRP8-37 3 ng/kg/min, n=8/group; for effect on infarct size (in words): infusion at late ischemia-early reperfusion
From the text: N=6 rats/group. […] Yellow zone within the red is the infarcted area. Red zone is the area-at-risk supplied by the occluded left anterior descending coronary artery. Blue zone is non-risk zone supplied by no-occluded right and circumflex coronary arteries. Infarct size is normalized as the ration of yellow-area/red-area. Acute infarction-reperfusion model consists of 30-minute occlusion of the left anterior descending coronary artery followed by four-hour reperfusion. Infarct-size was quantified at the end of four-hour reperfusion. N=6 rats/group. Inventors used rat MI model (30-min ischemia and 4 h reperfusion). […] The effect of combination therapy on myocyte protection was further assessed in a simulated ischemia-reperfusion model of isolated rat ventricular myocytes (2-hr ischemia and 1-hr reperfusion). […] The mechanisms underlying combination therapy were determined by assessing myocardial PKA and PKC activity in normal rats. […] Experimental Myocardial Ischemia-Reperfusion Model. The rat myocardial ischemia-reperfusion model will be used (Birnbaum et al., 2005; Huang et al., 2007a). This model consists of 30 min coronary artery occlusion followed by 4-hr reperfusion. […] To determine the effect of β1-adrenergic receptor antagonist and the synergistic action of both PKA activator and β1-adrenergic receptor antagonist, esmolol ([…]) will be intravenously infused to rats with or without milrinone. Arterial blood pressure and heart rate will be monitored continuously throughout the experiments. Method for in vivo myocardial infarct study: Following anesthesia and ventilation support, the chest is opened and the left coronary artery encircled with a suture and ligated for 30 min. The snare is then released and myocardium reperfused for 4 hr. The left coronary artery is then reoccluded and Evan's blue dye injected into the right ventricle. The LV is sliced into 6-7 sections. […] The areas of ischemia and necrosis in each slice are determined by planimetry, converted into percentages of the whole for each slice, and multiplied by the weight of the slice.

[2] = cited from earlier work
[3] = tested on: isolated rat ventricular myocytes; test: simulated ischemia-reperfusion of isolated rat ventricular myocytes (2-hr hypoxia, 1-hr re-oxygenation), myocyte death; assay type: cell-based
Protocol: In vitro myocyte ischemia/reperfusion study consists of 2-hour hypoxia followed by 1-hour re-oxygenation. Hypoxia is created by layering mineral oil over the cells. Re-oxygenation is made by removal of the oil. Myocyte death is quantified at the end of 1-hour reperfusion.
(§1) Inventors used rat MI model (30-min ischemia and 4 h reperfusion). […] The effect of combination therapy on myocyte protection was further assessed in a simulated ischemia-reperfusion model of isolated rat ventricular myocytes (2-hr ischemia and 1-hr reperfusion). […] The mechanisms underlying combination therapy were determined by assessing myocardial PKA and PKC activity in normal rats.
To verify that infarct-size reducing or limiting effect is a direct product of PKA activation on myocyte survival but not a secondary effect due to salutatory coronary/systemic hemodynamic alternations, the inventors tested the effect of PKA activation by milrinone on isolated rat ventricular myocytes in primary culture. In vitro myocyte ischemia-reperfusion study consists of 2-hour hypoxia followed by 1-hour re-oxygenation. Hypoxia is created by layering mineral oil over the cells. Re-oxygenation is made by removal of the oil. Myocyte death is quantified at the end of 1-hour reperfusion.

[4] = tested on: acute myocardial infarction; conditions: rat model, administration before the onset of acute myocardial infarction; cited from earlier work
[5] = tested on: acute myocardial infarction; conditions: canine model, administration 30-min after the onset of acute myocardial infarction; cited from earlier work
PKA = test: myocardial PKA activity after IV infusion in normal rats; assay type: in vivo, rat; conditions: 10-min tail vein infusion, peaked at 5-min post-infusion, ventricular tissue
Protocol: as §1

[6] = milrinone 5 μg/kg/min, esmolol 10 μg/kg/min

Q: For `Cc1ccc(OCC(O)C(C)NC(C)C)c2c1CCC2` (centres unmarked) [ICI-118551], which “increase of infarct size (IS)” value [1] is on record?
A: 44%

Q: For `COc1cccc2c1C(=O)c1c(O)c3c(c(O)c1C2=O)C[C@@](O)(C(=O)CO)C[C@@H]3O[C@H]1C[C@H](N)[C@H](O)[C@H](C)O1` [doxorubicin], which “incidence of doxorubicin-induced cardiomyopathy” value ([2]; dose of 501-550 mg/m^2 body surface area, patients) is on record?
A: > 5%

Q: And the “incidence of doxorubicin-induced cardiomyopathy” value ([2]; dose over 550 mg/m^2, patients)?
A: 30%

Q: With `COC(=O)CCc1ccc(OCC(O)CNC(C)C)cc1` (centres unmarked) [esmolol] as the molecule, how does the “effect on infarct size (in words)” value [1, 6] read?
A: did not change infarct size

Q: With `Cc1[nH]c(=O)c(C#N)cc1-c1ccncc1` [milrinone] as the molecule, how does the “milrinone-induced myocyte protection in presence of PKA inhibitor” value ([3]; cells pretreated with PKA inhibitor Rp-CAMP 100 μmol/L) read?
A: abolished

Q: What about the “reduction of myocyte death compared to saline control” value ([3]; milrinone 4.7 μmol/L, thirty minutes after the onset of ischemia) of the same molecule?
A: 11%

Q: What about the “effect on infarct size, given before onset of infarction (preconditioning)” value [4] of the same molecule?
A: infarct-size reduction

Q: And the “effect on infarct size, given after onset of infarction” value [5]?
A: no infarct-size reduction

Q: What about the “infarct-size reduction compared with saline control” value ([1]; 10-minute infusion from last 5 minutes of 30-minute ischemia to first 5 minutes of four-hour reperfusion, milrinone 5 μg/kg/min, esmolol 10 μg/kg/min, N=6 rats/group) of the same molecule?
A: 53±5%

Q: What about the “effect on infarct size (in words)” value [1, 6] of the same molecule?
A: robust infarct-size reduction

Q: For `CC(C)(C)NCC(O)c1cc(O)cc(O)c1` (centres unmarked) [terbutaline], which “myocyte survival benefit of single agent (in words)” value ([3]; CGRP or terbutaline alone) is on record?
A: no myocyte survival benefit

Q: And the “increase of PKA activity” value (PKA)?
A: 30%

Q: What about the “effect on infarct size (IS) of single agent (in words)” value ([1]; CGRP or terbutaline alone, late ischemia-early reperfusion) of the same molecule?
A: did not reduce IS

Q: Which “increase of infarct size (IS)” value [1] does the source give for “CGRP8-37: CGRP-receptor blocker (VTHRLAGLLSRSGGVVKNNFVPTNVGSKAF; ends and bridges not checked; UniProt P06881 90-119, looked up, fragment)” here?
A: 36%
